According to patent US9745348B2 (The University of Manchester, priority 2011, dated 2017):
Where two headings read alike, the source gives them in different places. Where no end group is shown, it is not given here. The star is where a group is joined. FITC = O=C1OC2(c3ccc(O)cc3Oc3cc(O)ccc32)c2ccc(NC(=S)*)cc21; Ahx = NCCCCCC(=O)O

How the values were obtained:
[1] = test system: E. coli, (EC) and S. aureus, (SA); experiment: Bacterial growth by optical density, statements for both bacteria; format: cell-based, Escherichia coli; Staphylococcus aureus; conditions: 1 wt %; for antibacterial activity of surfactant alone: both SA and EC
Method: Bacteria E. coli, (EC) and S. aureus, (SA) were grown in LB media at 37° C. with continuous shaking for 24 hours. The bacterial concentration was then adjusted such that the absorbance at 600 (A600) was controlled to ca 0.2 unit. The bacteria suspensions with the peptides were incubated in 96-well tissue culture plates. The total medium volume in each well was […]. […] Controls with media only and media with bacteria only were run alongside the peptide bacteria mixed suspensions. Measurements were taken at time t=0, t=20 and t=72 hours using optical density cell plate reader. The optical density (OD) is representative of the relative amount of bacterial growth within the medium.
Interactions of bacteria E. coli, (EC) and S. aureus, (SA) with surfactants were also studied. The bacteria were grown in LB media at 37° C. with continuous shaking for 24 hours. The bacterial concentration was then adjusted such that the absorbance at 600 (A600) was controlled at ca 0.2 unit. The bacteria suspensions with surfactants were incubated in 96-well tissue culture plates. The total medium volume in each well was 200 μL. Again, surfactant concentrations of 1% were used. Controls with media only and media with bacteria only were run alongside the surfactant-bacteria mixed suspensions. Measurements were taken at time t=0, t=20 and t=72 hours using optical density cell plate reader again.

[2] = test system: fibroblasts Adult (HDFa) cells; experiment: MTT viability of fibroblasts over three days; format: cell-based, human
Method: (§1) MTT assay: Cell viability and proliferation is widely assessed by the MTT assay as already described previously.
(§2) The fibroblasts cells, Neonatal (HDFn) and Adult (HDFa), were both grown until greater than 80% confluent. […] After 24 hour incubation the culture medium was replaced with fresh medium containing an appropriate amount of the peptide for investigation.
(§3) The viability of the fibroblasts, Adult (HDFa) and Neonatal (HDFn) cells in the presence of surfactants was tested by MTT assay over three days relative to control wells containing cells only.

[3] = test system: NIH 3T3 cells co-cultured with B. subtilis 168 or HL60 cancer cells; experiment: Co-culture selectivity, distribution of FITC-labeled peptide by fluorescence microscopy; format: cell-based; conditions: 20 μM, 1 hour incubation
Method: To further verify the selective cytotoxicity of G(IIKK)3I-NH2 (SEQ ID NO: 3) in vitro, we added the FITC-labeled G(IIKK)3I-NH2 (SEQ ID NO: 3) to the two co-culture systems containing mammalian cell line NIH 3T3 (model host) and bacteria B. subtilis 168 or cancer cell line (HL 60). Specifically, NIH 3T3 cells were cultured at 37° C. with 5% CO2 in IMDM supplemented with 10% FBS. After reaching an over 80% confluence, the cells were transferred into a 6-well plate containing sterile coverslips at bottom to a final concentration of 1×10^5 cells/well. After overnight culture at 37° C., the medium was replaced with 1 ml B. subtilis 168 suspended in PBS with a density of 1×10^6 CFU/ml or 1 ml HL 60 cells suspended in PBS with a density of 1×10^5 cells/ml. Meanwhile, FITC-labeled G(IIKK)3I-NH2 (SEQ ID NO: 3) dissolved in the same buffer was also added to each well to the final concentration of 20 μM. […]
To further confirm the selective responses and cytotoxicity of the peptides, FITC-labeled G(IIKK)3I-NH2 (SEQ ID NO: 3) was synthesized according to the method described previously by Jullian M, et al (Julian et al 2009). […] After incubation for 1 hour, the distribution of FITC-G(IIKK)3I-NH2 (SEQ ID NO: 3) was observed using fluorescence microscopy and the results are shown in FIG. 12. […]

[4] = test system: human red blood cells (hRBCs); experiment: Hemolytic activity, hemoglobin release; format: cell-based; conditions: up to 250 μM, 1 h at 37° C.
Method: Peptide hemolytic activities were measured by determining hemoglobin release by 4% (v/v) suspensions of fresh human erythrocytes at 540 nm. Fresh human red blood cells (hRBCs) from volunteers were centrifuged and washed three times with PBS (pH7.4). 100 μL of hRBCs suspended in PBS at 8% (v/v) were mixed with 100 µL of different series of 2-fold diluted peptides in a sterile 96-well plate. The plates were incubated for 1 h at 37° C., and centrifuged at 1000 g for 5 min. 100 μL aliquots of the supernatant were transferred to new 96-well plates, and hemoglobin release monitored by measuring supernatant absorbance at 540 nm with a microplate ELISA Reader. As negative and positive controls, hRBCs in PBS and 0.1% Triton X-100 were employed. The hemolysis percentage was calculated using the follow equation: % hemolysis=[(Abs540 nm with peptide−Abs540 nm in PBS)/[(Abs540 nm with 0.1% Triton X-100−Abs540 nm in PBS)×100 Observing Bacterial Membrane Lysis by Fluorescence Microscopy

[5] = test system: cytokine genes IL2 and IL8 of human lymphocytes; conditions: 10 μM, 1 h
Method: RT-PCR (Reverse Transcription Polymerase Chain Reaction and Real Time Polymerase Chain Reaction): To determine the related gene transcriptional activities about HeLa cell apoptosis and the lymphocyte immunological effects, RT-PCR assays were performed. […] Total RNA from the cells was extracted by Trizol following the manufacturer's instructions (Invitrogen, Britain). Total RNA (1 μg) was subject to cDNA synthesis with random primers (PrimeScript Reverse Transcriptase, Takara, Japan). Real-Time PCR was performed with power SYBR green PCR Master Mix kit (Applied Biosystems, American) using a 7500 real-time PCR system (Applied Biosystems, American) according to the protocol of the manufacturer, and the data were analyzed by relative quantitation of the 2^−ΔΔCt method. Transcriptional levels of related genes were normalized to the values of the house keeping gene β-actin.

[6] = MTT viability of fibroblasts over three days; format: cell-based, human; conditions: human, adult fibroblasts (HDFa cells)
Method: as §1, §2, §3

[7] = test system: HeLa and HL60 cancer cell lines; conditions: 24 h
Method: Antitumor activities of peptides were measured using the 3-(4,5-dimethylthiazol-2-yl)-2,-diphenyl tetrazolium bromide (MTT) assay, and the IC50 value was calculated as the concentration of peptide that induced 50% growth inhibition compared to the untreated control.
HeLa and HL60 cells were seeded in 96-well plates (10^5 cells/well) in a complete medium [Iscove's modified dulbecco's medium (IMDM)] with 10% fetal bovine serum (FBS) for 24 h before peptide treatment. […] Following incubation with peptides, 20 μL of a 5 mg/ml solution MTT reagent was added to each well and incubated for 4 h at 37° C. After removing the supernatant, 150 μL of dimethyl sulfoxide (DMSO) was added to dissolve the formazan crystals that remained in the wells. The absorbance was determined using a microplate ELISA Reader at 570 nm. Wells without cells for blanking the spectrophotometer and the cells without peptides were taken as negative controls.

[8] = test system: E. coli DH5α and B. subtilis 168; format: cell-based, Escherichia coli; Bacillus subtilis; conditions: 1 h
Method: To determine antibacterial activity of peptides, survival rate curves were constructed. Bacteria (E. coli DH5α or B. subtilis 168) were incubated with peptide at varying peptide concentrations at 37° C. for 1 h. Aliquots of 2 μL were withdrawn, diluted and spread on agar plates. After overnight incubation at 37° C., the surviving bacteria were expressed as the percentage of total cells, and survival curves drawn (FIG. 4). Controls were bacteria without peptide. The minimal inhibitory concentrations (MICs) of each peptide were measured by standard microdilution method. The test was done in sterile 96-well plates in a final volume of 200 μL. Aliquots (100 μL) of a bacterial suspension at 1×10^5 (colony-forming units (CFU)/ml) in culture medium were added to […] peptide solution (2-fold serial dilutions in 10 mM PBS buffer). […] The MIC was defined as the lowest concentration of peptide for which there was no visible growth. Each determination was performed at least three times.

[9] = in vitro; format: cell-based; conditions: human, neonatal fibroblasts (HDFn cells)
Method: as §1
The fibroblasts cells, Neonatal (HDFn) and Adult (HDFa), were both grown until greater than 80% confluent. The cells were then harvested and seeded into micro well plate at cell densities of 5000 cells/well in a volume […] of medium. After 24 hour incubation the culture medium was replaced with fresh medium containing an appropriate amount of the peptide for investigation.

CCCCCCCCCCCC[N+](C)(C)C.[Br-] [Helix C12TAB, Dodecyl trimethylammonium bromide]
growth of bacteria after 72 hours ([1]; 72 hours): no growth of bacteria
antibacterial activity of surfactant alone [1]: significant antibacterial activity
MTT results (relative MTT reading) ([2]; HDFa, surfactant 1%, Day 1): 0.00
MTT results (relative MTT reading) ([2]; HDFa, surfactant 1%, Day 2): 0.00
MTT results (relative MTT reading) ([2]; HDFa, surfactant 1%, Day 3): 0.00

FITC-G(IIKK)3I-NH2: N-terminal FITC-labeled G(IIKK)3I-NH2 with 6-aminohexanoic acid (Ahx) between the last amino acid and the thiourea linkage ({FITC-Ahx}-GIIKKIIKKIIKKI-NH2; SMILES CC[C@H](C)[C@H](NC(=O)[C@H](CCCCN)NC(=O)[C@H](CCCCN)NC(=O)[C@@H](NC(=O)[C@@H](NC(=O)[C@H](CCCCN)NC(=O)[C@H](CCCCN)NC(=O)[C@@H](NC(=O)[C@@H](NC(=O)[C@H](CCCCN)NC(=O)[C@H](CCCCN)NC(=O)[C@@H](NC(=O)[C@@H](NC(=O)CNC(=O)CCCCCNC(=S)Nc1ccc2c(c1)C(=O)OC21c2ccc(O)cc2Oc2cc(O)ccc21)[C@@H](C)CC)[C@@H](C)CC)[C@@H](C)CC)[C@@H](C)CC)[C@@H](C)CC)[C@@H](C)CC)C(N)=O)
distribution of green fluorescence of FITC-labeled peptide in co-culture [3]: concentrated in the bacterial clusters or the HL60 cells but not in any part of the 3T3 cells

GIIKKI-NH2 [G(IIKK)I-NH2]
hemolytic activity [4]: inactive

GIIKKIIKKIIKKI-NH2 [Helix G3, G(IIKK)3 I-NH2]
relative transcriptional levels of IL2 and IL8 of lymphocytes [5]: lower or almost equal to that of control cells
viability at 24 h, 5 µM [6]: 91%
viability at 24 h, 25 µM [6]: 88%
viability at 24 h, 50 µM [6]: 87%
viability at 24 h, 100 µM [6]: 78%
viability at 48 h, 5 µM [6]: 92%
viability at 48 h, 25 µM [6]: 85%
viability at 48 h, 50 µM [6]: 84%
viability at 48 h, 100 µM [6]: 75%
viability at 72 h, 5 µM [6]: 81%
viability at 72 h, 25 µM [6]: 80%
viability at 72 h, 50 µM [6]: 75%
viability at 72 h, 100 µM [6]: 71%
IC50 [7]: 4 to 25 µM
MICs (minimum inhibitory concentrations) [8]: 0.5 to 8 µM

GIIKKIIKKIIKKIIKKI-NH2 [Helix G4, G(IIKK)4 I-NH2]
viability at 24 h, 5 µM [6]: 90%
viability at 24 h, 25 µM [6]: 87%
viability at 24 h, 50 µM [6]: 85%
viability at 24 h, 100 µM [6]: 81%
viability at 48 h, 5 µM [6]: 84%
viability at 48 h, 25 µM [6]: 81%
viability at 48 h, 50 µM [6]: 78%
viability at 48 h, 100 µM [6]: 70%
viability at 72 h, 5 µM [6]: 81%
viability at 72 h, 25 µM [6]: 78%
viability at 72 h, 50 µM [6]: 65%
viability at 72 h, 100 µM [6]: 55%
viability at 24 h, 5 µM [9]: 95%
viability at 24 h, 25 µM [9]: 85%
viability at 24 h, 50 µM [9]: 81%
viability at 24 h, 100 µM [9]: 73%
viability at 48 h, 5 µM [9]: 92%
viability at 48 h, 25 µM [9]: 77%
viability at 48 h, 50 µM [9]: 71%
viability at 48 h, 100 µM [9]: 65%
viability at 72 h, 5 µM [9]: 79%
viability at 72 h, 25 µM [9]: 74%
viability at 72 h, 50 µM [9]: 65%
viability at 72 h, 100 µM [9]: 53%
IC50 [7]: 4 to 25 µM
MICs (minimum inhibitory concentrations) [8]: 0.5 to 8 µM

cocamidopropyl aetaine [Tt]
antibacterial activity of surfactant alone [1]: some antibacterial influence

sodium lauryl ether sulphate [SLES]
antibacterial activity of surfactant alone [1]: some antibacterial influence
MTT results (relative MTT reading) [2]: 0.00
